Test results published in paper PMC9503459, “Antifungal Activity, Structural Stability, and Immunomodulatory Effects on Human Immune Cells of Defensin from the Lentil Lens culinaris” (Membranes, 2022).
No end group written: not given here.

System: polarized Caco-2 monolayer
Experiment: Cytokine response by multiplex xMAP, Caco-2
Assay type: cell-based, human
Details: 2 µM, 24 h
Protocol: Colorectal adenocarcinoma Caco-2 cell line (ATCC HTB-37) was cultured in complete DMEM/F12 (1:1) medium containing 10% fetal bovine serum (FBS, Gibco) and 1X antibiotic-antimycotic solution (1XAAS, Invitrogen, Waltham, MA, USA). The acute monocytic leukemia THP-1 line (ATCC TIB-202) was cultured in complete RPMI-1640 medium, containing 10% FBS, 1XAAS, and […]. THP-1 cells were differentiated into pro-inflammatory macrophages (Mφ1) with phorbol 12-myristate 13-acetate (Sigma-Aldrich) for 24 h and subsequently polarized with lipopolysaccharide from E. coli (Sigma-Aldrich) and rhIFN-γ (Sigma-Aldrich) for another 48 h according to previously reported protocol. All cells were cultured in a humidified CO2 incubator (5% CO2, 37 °C). Primary peripheral blood mononuclear cells (PBMCs) collected from a healthy donor were purchased from American Type Culture Collection (ATCC PCS-800-011). CD4^+ T-helper and CD8^+ T cytotoxic cells were isolated from PBMCs by magnetic separation with mouse anti-human CD4-PE (clone 13B8.2, Beckman Coulter Diagnostics, Pasadena, CA, USA) and CD8-PE (clone REA734, Miltenyi Biotec, Bergisch Gladbach, Germany), Anti-PE MicroBeads (Miltenyi Biotec), and LS Separation Columns (Miltenyi Biotec). Isolated CD4^+ and CD8^+ cells were expanded separately with Dynabeads™ Human T-Expander CD3/CD28 (Gibco, Waltham, MA, USA) in RPMI-1640 supplemented with 10% FBS, 1XAAS and 100 U/mL rh-IL-2 (Gibco). Regulatory CD4^+ FoxP3^+ T cells (Tregs) were isolated from PBMCs by magnetic separation with CD4^+CD25^+ Regulatory T Cell Isolation Kit, human (Miltenyi Biotec). Primary CD14^+ blood monocytes were isolated from PBMCs by adherence according to standard technique. Monocyte-derived mature dendritic cells (moDCs) were obtained from CD14^+ blood monocytes according to the previously reported protocol. Briefly, blood monocytes were incubated in complete RPMI-1640 medium, containing 10% FBS, 1XAAS, 800 U/mL rhGM-CSF (Sci-Store, Russia, Moscow) and 500 U/mL rhIL-4 (Sci-Store) for 3 days. Fresh complete RPMI-1640 medium with rhGM-CSF and rhIL-4 was added to the culture on day 3. On day 5, fresh complete RPMI-1640 containing 100 U/mL rhTNF-α (Sigma) as well as 800 U/mL rhGM-CSF and 500 U/mL rhIL-4 was added and the culture was incubated for another 4 days until full maturation.
Caco-2 cells were seeded into the wells of a 48-well plate, coated with 0.1% bovine collagen (Sigma-Aldrich) for 24 h, 3 weeks before the experiment with complete DMEM/F12 (1:1) medium renewal every 2–3 days. Monocytes, moDCs, CD4^+ T-helper and CD8^+ T cytotoxic cells, Mφ1, and Regulatory CD4^+ FoxP3^+ T cells were seeded into the wells of 48-well plates in the complete RPMI-1640 medium supplemented with 10% Human AB serum (HABS, Capricorn Scientific, Ebsdorfergrund, Germany) and 1XAAS 24 h prior to the experiment; medium in Caco-2-containing wells was also replaced with the same medium. After 24 h, half of the medium in each well was replaced by fresh complete RPMI-1640 medium with 10% HABS, supplemented with 4 µM of Lc-def for the sample wells or fresh medium alone for the control wells. Cell cultures were kept in CO2-incubator (5% CO2, 37 °C) for another 24 h. Culture supernatants were collected 24 h later and stored at −70 °C degrees less than one month prior to the analytes assessment. […]

“Lc-def: defensin from lentil Lens culinaris seeds (UniProt:B3F051), recombinant, overexpressed in Escherichia coli (KTCENLSDSFKGPCIPDGNCNKHCKEKEHLLSGRCRDDFRCWCTRNC; disulfide (positions not given here); ends not checked; also: disulfide bonds present, pairing not given here; UniProt B3F051 28-74, looked up)” was tested, and the EGF (Caco-2 monolayer) was <1.95↓ pg/ml, the Eotaxin (Caco-2 monolayer) was <3.23↓ pg/ml and the FGF-2 (Caco-2 monolayer) was 19.54 pg/mL. The FLT-3L (Caco-2 monolayer) was <0.45↓ pg/ml, the Fractalkine (Caco-2 monolayer) was <23.19↓ pg/ml and the G-CSF (Caco-2 monolayer) was <2.57↓ pg/ml. For the same substance, the GM-CSF (Caco-2 monolayer) was <1.36↓ pg/ml, the GROa (Caco-2 monolayer) was 21.87 pg/mL and the IFNa2 (Caco-2 monolayer) was <4.43↓ pg/ml. The IFNg (Caco-2 monolayer) was <1.99↓ pg/ml, the IL-1RA (Caco-2 monolayer) was <0.83↓ pg/ml and the IL-1a (Caco-2 monolayer) was <3.64↓ pg/ml. The IL-1b (Caco-2 monolayer) was <18.72↓ pg/ml, the IL-2 (Caco-2 monolayer) was <0.31↓ pg/ml and the IL-3 (Caco-2 monolayer) was <0.48↓ pg/ml. The IL-4 (Caco-2 monolayer) was 11.31 pg/mL, the IL-5 (Caco-2 monolayer) was <0.24↓ pg/ml and the IL-6 (Caco-2 monolayer) was 1.45 pg/mL. The IL-7 (Caco-2 monolayer) was <0.33↓ pg/ml, the IL-8 (Caco-2 monolayer) was 7.94 pg/mL and the IL-9 (Caco-2 monolayer) was 11.08 pg/mL. For the same substance, the IL-10 (Caco-2 monolayer) was <0.68↓ pg/ml, the “IL-12 (p40)” value (Caco-2 monolayer) was <3.02↓ pg/ml and the “IL-12 (p70)” value (Caco-2 monolayer) was <1.48↓ pg/ml. For the same substance, the IL-13 (Caco-2 monolayer) was 42.42 pg/mL, the IL-15 (Caco-2 monolayer) was <1.45↓ pg/ml and the IL-17A (Caco-2 monolayer) was <1.55↓ pg/ml. For the same substance, the IL-17E/IL-25 (Caco-2 monolayer) was <20.59↓ pg/ml, the IL-17F (Caco-2 monolayer) was <16.96↓ pg/ml and the IL-18 (Caco-2 monolayer) was <0.35↓ pg/ml. For the same substance, the IL-22 (Caco-2 monolayer) was 51.96 pg/mL, the IL-27 (Caco-2 monolayer) was <8.55↓ pg/ml and the IP-10 (Caco-2 monolayer) was 29.22 pg/mL. The M-GSF (Caco-2 monolayer) was <23.75↓ pg/ml, the MCP-1 (Caco-2 monolayer) was <1.52↓ pg/ml and the MCP-3 (Caco-2 monolayer) was 12.67 pg/mL. The MDC (Caco-2 monolayer) was <0.35↓ pg/ml, the MIG (Caco-2 monolayer) was <3.43↓ pg/ml and the MIP-1a (Caco-2 monolayer) was <1.76↓ pg/ml. For the same substance, the MIP-1b (Caco-2 monolayer) was <1.92↓ pg/ml, the PDGF-AA (Caco-2 monolayer) was 541.87 pg/mL and the PDGF-AB/BB (Caco-2 monolayer) was 188.6 pg/mL. The RANTES (Caco-2 monolayer) was <0.67↓ pg/ml, the TGF-a (Caco-2 monolayer) was <0.66↓ pg/ml and the TNFa (Caco-2 monolayer) was <3.91↓ pg/ml. For the same substance, the TNFb (Caco-2 monolayer) was 21.23 pg/mL, the VEGFa (Caco-2 monolayer) was 2653 pg/mL and the sCD40L (Caco-2 monolayer) was <6.66↓ pg/ml. The “effect on cytokine production” value (polarized Caco-2 monolayer) was “no effect”.
